Patent publication US20180021361A1, “COMBINATION DRUG TREATMENT FOR HEPATITIS C INFECTION” (JANSSEN PHARMACEUTICALS, INC., priority 2016, published 2018)
Entries after “also recorded” stand apart in the source; their conditions may differ.

How the values were obtained:
[1] = Phase-1 drug-drug interaction study, plasma PK in healthy volunteers
Procedure: A drug-drug interaction study (DDI) study is a study designed to investigate whether a drug alters the pharmacokinetics of another drug or drugs or their metabolites.
Compound (III) Subjects received 800 mg of Compound (III) once daily from Days 1-3, Days 11-13, and Days 21-23. PK blood samples for determination of Compound (III) and metabolite concentrations were collected in reference to the Day 3, Day 13, and Day 23 doses.
Simeprevir—Subjects received 150 mg of Simeprevir (SMV) once daily from Days 4-23. PK blood samples for determination of SMV concentrations were collected in reference to the Day 10, Day 13, Day 20, and Day 23 doses.
Odalasvir—Subjects received a loading dose of 150 mg on Day 14, and 50 mg of Odalasvir once daily from Days 15-23. PK blood samples for determination of Odalasvir concentrations were collected in reference to the Day 20 and Day 23 doses.
Compound (III)—Subjects received 800 mg of Compound (III) once daily from Days 1-3, Days 11-13 and Days 21-23. PK blood samples for determination of Compound (III) and metabolite concentrations were collected in reference to the Day 3, Day 13, and Day 23 doses.
Simeprevir—Subjects receive 150 mg of SMV once daily from Days 4-23. PK blood samples for determination of SMV concentrations were collected in reference to the Day 20 and Day 23 doses.
Odalasvir—Subjects receive a loading dose of 150 mg on Day 4, and 50 mg of Odalasvir once daily from Days 5-23. PK blood samples for determination of Odalasvir concentrations were collected in reference to the Day 10, Day 13, Day 20, and Day 23 doses.
A primary objective was to evaluate the effect of multiple oral doses of Odalasvir (alone), Simeprevir (alone), and Odalasvir and Simeprevir on the multiple oral dose PK of Compound (III) (and certain metabolites thereof, such as the major metabolites in systemic circulation) in healthy volunteers. Other objectives were to evaluate the safety and tolerability of multiple oral doses of Compound (III) when administered alone and in combination with single and multiple oral doses of Odalasvir and/or Simeprevir in healthy volunteers; to determine the potential effect of Compound of Compound (III) and/or Odalasvir on the steady-state PK of Simeprevir in healthy volunteers; to determine the potential effect of Compound of Compound (III) and/or Simeprevir on the steady state PK of Odalasvir in healthy volunteers.
Various other PK parameters were estimated including: […], t1/2, Tmax, Tlast, CL/F, Vz/F, and λz.
Odalasvir: 150 mg loading dose; 50 mg for the remainder of the study period.

[2] = biological target: BSEP (Homo sapiens, UniProt O95342); settings: efflux transporter; cited from earlier work
[3] = prior drug-drug interaction study, Rosuvastatin substrate of OATPs & BCRP; cited from earlier work
[4] = biological target: MRP2 (Homo sapiens, UniProt Q92887); settings: efflux transporter; cited from earlier work
[5] = biological target: P-gp (Homo sapiens, UniProt P08183); settings: efflux transporter; cited from earlier work
[6] = biological target: T1, OATP1B1 (Homo sapiens, UniProt Q9Y6L6); settings: uptake transporter; cited from earlier work
T1 sequence (Q9Y6L6 1-691): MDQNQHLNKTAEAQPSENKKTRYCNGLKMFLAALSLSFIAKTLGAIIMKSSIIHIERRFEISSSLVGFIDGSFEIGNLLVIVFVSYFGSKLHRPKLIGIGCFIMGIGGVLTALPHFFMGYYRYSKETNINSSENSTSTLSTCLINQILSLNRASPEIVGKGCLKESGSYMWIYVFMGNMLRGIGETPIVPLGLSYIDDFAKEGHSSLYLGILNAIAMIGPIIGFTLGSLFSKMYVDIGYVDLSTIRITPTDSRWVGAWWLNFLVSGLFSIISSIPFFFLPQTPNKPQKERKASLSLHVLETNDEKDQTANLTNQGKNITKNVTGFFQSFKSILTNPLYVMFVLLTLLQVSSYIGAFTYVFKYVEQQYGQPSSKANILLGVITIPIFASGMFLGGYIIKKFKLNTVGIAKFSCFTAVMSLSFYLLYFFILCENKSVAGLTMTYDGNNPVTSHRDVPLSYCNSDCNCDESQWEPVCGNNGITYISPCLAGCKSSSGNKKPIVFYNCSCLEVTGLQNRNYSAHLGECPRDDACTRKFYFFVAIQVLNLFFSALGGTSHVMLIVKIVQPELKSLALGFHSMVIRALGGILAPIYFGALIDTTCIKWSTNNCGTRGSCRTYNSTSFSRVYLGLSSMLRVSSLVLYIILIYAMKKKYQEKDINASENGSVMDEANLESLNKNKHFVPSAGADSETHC

[7] = Phase 2a open-label combination study, pharmacokinetics; assay type: in vivo, human
Procedure: A randomized, Phase 2a, open-label study was carried out to evaluate the safety, pharmacokinetics and efficacy of the combination of Compound (III), Odalasvir and Simeprevir in Genotype 1 treatment-naïve subjects with chronic hepatitis C. Other treatment-naïve subjects included Genotype 2, 3, 4, 5 and 6. The aim of the study was to determine the efficacy, pharmacokinetics (PK), and safety of Compound (III)+Odalasvir±SMV in HCV-infected subjects. […] Efficacy, PK and safety evaluations were conducted during and through 24 weeks post dosing. Up to 15 cohorts were enrolled; data was generated from cohorts that have completed dosing.

[8] = prior drug-drug interaction study, Digoxin a pgp-substrate; cited from earlier work

Chain of MRP2 (Q92887 whole entry): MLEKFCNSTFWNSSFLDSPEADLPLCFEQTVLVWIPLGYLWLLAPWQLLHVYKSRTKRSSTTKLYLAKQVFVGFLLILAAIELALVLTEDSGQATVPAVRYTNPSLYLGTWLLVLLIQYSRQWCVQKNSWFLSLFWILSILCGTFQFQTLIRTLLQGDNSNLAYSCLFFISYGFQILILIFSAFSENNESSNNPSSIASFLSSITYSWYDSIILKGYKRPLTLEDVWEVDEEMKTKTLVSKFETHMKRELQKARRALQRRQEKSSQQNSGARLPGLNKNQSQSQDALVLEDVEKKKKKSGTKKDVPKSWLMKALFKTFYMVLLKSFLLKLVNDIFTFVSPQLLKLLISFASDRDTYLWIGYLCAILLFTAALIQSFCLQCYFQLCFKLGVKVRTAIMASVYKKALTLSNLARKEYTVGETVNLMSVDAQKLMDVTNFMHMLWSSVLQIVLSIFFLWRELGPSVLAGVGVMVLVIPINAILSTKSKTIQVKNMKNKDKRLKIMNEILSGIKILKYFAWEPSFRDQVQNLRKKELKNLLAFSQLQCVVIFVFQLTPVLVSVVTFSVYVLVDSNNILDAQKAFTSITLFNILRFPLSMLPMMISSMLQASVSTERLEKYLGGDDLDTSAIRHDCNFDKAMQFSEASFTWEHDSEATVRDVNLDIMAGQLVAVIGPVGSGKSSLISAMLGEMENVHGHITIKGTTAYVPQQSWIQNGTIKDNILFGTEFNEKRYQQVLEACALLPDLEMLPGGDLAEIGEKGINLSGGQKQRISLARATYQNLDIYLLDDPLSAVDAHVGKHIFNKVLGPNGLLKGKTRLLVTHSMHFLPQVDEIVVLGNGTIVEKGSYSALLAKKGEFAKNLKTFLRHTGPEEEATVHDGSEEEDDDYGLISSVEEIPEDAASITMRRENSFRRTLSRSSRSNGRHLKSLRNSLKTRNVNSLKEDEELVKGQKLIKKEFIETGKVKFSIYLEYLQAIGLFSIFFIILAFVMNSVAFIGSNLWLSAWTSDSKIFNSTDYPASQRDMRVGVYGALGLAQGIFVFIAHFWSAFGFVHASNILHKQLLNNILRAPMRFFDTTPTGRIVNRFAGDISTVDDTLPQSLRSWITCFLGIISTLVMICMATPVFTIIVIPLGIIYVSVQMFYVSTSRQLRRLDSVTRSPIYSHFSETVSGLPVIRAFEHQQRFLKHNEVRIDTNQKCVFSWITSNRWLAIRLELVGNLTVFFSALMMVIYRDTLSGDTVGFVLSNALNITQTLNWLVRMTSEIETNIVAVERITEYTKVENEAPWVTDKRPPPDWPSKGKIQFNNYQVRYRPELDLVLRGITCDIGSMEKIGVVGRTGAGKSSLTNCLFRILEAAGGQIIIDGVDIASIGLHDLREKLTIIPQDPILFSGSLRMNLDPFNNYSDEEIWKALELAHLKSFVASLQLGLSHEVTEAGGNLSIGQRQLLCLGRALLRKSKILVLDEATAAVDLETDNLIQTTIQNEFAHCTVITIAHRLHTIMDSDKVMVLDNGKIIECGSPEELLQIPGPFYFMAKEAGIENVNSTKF
Chain of P-gp (P08183 whole entry): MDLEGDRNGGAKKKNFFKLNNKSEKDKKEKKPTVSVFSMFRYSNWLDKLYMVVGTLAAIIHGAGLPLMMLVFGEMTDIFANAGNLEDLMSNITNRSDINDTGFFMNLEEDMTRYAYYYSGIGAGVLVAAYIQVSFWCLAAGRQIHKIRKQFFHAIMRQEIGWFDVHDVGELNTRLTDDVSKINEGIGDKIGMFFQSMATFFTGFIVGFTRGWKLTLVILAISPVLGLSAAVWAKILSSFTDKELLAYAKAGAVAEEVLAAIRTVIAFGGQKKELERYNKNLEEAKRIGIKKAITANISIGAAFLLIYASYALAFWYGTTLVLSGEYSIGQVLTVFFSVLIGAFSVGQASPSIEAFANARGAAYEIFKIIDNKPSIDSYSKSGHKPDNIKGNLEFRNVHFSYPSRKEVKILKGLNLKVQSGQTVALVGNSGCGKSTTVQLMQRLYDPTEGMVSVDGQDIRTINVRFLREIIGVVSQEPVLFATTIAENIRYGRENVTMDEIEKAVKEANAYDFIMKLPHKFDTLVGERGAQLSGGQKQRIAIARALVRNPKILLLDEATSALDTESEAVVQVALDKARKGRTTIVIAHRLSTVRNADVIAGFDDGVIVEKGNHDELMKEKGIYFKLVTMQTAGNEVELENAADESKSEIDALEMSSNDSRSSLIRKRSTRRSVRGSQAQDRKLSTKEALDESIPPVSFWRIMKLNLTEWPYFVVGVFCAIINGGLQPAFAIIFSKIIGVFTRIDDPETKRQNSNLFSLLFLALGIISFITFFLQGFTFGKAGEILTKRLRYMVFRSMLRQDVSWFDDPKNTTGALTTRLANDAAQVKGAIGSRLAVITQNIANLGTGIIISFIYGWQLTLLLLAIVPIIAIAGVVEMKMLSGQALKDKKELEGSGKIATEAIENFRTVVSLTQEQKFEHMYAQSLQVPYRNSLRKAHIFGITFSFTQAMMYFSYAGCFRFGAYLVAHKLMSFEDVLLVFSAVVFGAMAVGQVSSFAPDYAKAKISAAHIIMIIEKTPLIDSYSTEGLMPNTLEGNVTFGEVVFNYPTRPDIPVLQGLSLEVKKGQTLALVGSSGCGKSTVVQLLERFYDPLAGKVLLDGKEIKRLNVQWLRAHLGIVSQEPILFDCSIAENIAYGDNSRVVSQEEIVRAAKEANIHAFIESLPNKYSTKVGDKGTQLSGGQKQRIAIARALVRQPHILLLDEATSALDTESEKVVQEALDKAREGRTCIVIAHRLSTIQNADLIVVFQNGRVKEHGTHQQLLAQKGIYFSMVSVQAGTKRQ
Chain of BSEP (O95342 whole entry): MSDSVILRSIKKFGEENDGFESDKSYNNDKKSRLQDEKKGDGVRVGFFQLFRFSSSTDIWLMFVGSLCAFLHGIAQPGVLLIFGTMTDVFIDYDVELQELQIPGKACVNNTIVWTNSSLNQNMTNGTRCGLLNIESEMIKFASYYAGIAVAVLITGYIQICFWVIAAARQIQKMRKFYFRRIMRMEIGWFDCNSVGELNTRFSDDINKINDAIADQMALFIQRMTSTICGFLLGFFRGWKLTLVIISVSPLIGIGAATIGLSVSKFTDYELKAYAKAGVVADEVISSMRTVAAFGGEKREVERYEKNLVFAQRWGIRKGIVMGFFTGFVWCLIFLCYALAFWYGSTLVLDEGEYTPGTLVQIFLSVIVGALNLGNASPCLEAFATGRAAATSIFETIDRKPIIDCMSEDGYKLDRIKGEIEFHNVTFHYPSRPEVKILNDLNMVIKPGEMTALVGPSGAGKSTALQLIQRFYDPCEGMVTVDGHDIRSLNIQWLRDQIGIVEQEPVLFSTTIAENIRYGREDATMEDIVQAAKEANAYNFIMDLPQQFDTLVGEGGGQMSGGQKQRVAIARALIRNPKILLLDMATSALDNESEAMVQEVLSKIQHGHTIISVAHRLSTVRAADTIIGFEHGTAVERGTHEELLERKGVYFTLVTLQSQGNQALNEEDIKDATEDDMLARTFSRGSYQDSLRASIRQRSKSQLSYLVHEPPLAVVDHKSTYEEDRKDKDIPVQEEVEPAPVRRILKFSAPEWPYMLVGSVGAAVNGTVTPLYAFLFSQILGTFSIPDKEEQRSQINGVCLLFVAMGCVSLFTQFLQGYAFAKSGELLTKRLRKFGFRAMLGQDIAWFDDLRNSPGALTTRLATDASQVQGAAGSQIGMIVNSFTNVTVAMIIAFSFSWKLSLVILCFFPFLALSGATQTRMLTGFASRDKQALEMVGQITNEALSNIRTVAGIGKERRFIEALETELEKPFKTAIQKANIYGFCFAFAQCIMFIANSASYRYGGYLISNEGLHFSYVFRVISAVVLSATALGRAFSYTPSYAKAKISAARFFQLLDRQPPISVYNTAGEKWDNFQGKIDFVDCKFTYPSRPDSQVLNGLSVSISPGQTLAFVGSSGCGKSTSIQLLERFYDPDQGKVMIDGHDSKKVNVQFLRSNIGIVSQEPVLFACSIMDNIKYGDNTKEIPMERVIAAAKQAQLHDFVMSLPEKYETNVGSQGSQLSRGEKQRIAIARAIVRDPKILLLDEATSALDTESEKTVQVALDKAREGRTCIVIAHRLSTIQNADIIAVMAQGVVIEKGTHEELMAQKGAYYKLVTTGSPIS

Row | exposure increase caused by Odalasvir ([1]; DDI study results) | exposure increase caused by SMV ([1]; DDI study results) | exposure increase, effect of the three Compounds ([1]; DDI study results) | increase of exposure with the combination of the three drugs ([1]; human in vivo study) | observed exposure in Cohort 1 / group (i) versus anticipated ([7]; Compound (III) 400 mg, ODV 50 mg QD, SMV 100 mg QD) | decrease of exposure on reducing Simeprevir dosing from 100 mg to 75 mg QD ([7]; in vivo) | change of exposure on increasing Compound (III) dose from 400 to 800 mg ([7]; HCV GT 1 patients) | SMILES | in vitro inhibition of BSEP [2] | increase in Rosuvastatin exposure [3] | effect of Compound (III) on exposure / bioavailability ([1]; human subjects) | in vitro inhibition of MRP2 [4] | in vitro inhibition of P-gp [5] | in vitro inhibition of OATP1B1 [6] | increase in exposure of Digoxin [8]
1 | 2.6 × | 1.6 × | – | – | – | – | – | C[C@H](NP(=O)(O)OC[C@@]1(F)O[C@@H](n2ccc(=O)[nH]c2=O)[C@](C)(O)[C@@H]1O)C(=O)O [Compound A-3] | – | – | – | – | – | – | –
2 | 1.6 × | – | 1.6 × | 1.6 times | higher than anticipated | less than proportionally | – | COc1ccc2c(O[C@@H]3C[C@H]4C(=O)N[C@]5(C(=O)NS(=O)(=O)C6CC6)C[C@H]5/C=C\CCCCN(C)C(=O)[C@@H]4C3)cc(-c3nc(C(C)C)cs3)nc2c1C [SMV, Simeprevir, reference compound] | strong/moderate | 3 fold | no apparent effect; also recorded: does not alter | strong/moderate | strong/moderate | strong in vitro inhibition | 35%
3 | 1.5 × | no apparent effect | – | – | – | – | less than proportionally | C[C@]1(O)[C@H](n2ccc(=O)[nH]c2=O)O[C@](F)(CO)[C@H]1O [Compound A-1] | – | – | – | – | – | – | –
